Laboratory results reported in article PMC9965625, “Endocannabinoid 2-Arachidonoylglycerol Synthesis and Metabolism at Neuronal Nuclear Matrix Fractions Derived from Adult Rat Brain Cortex” (International Journal of Molecular Sciences, 2023).

Target: T1, α/β-hydrolase domain 12 protein (ABHD12) (Rattus norvegicus, UniProt Q6AYT7)
T1 construct: native enzyme in nuclear matrix fraction of adult rat brain cortex
T1 sequence (Q6AYT7 1-398): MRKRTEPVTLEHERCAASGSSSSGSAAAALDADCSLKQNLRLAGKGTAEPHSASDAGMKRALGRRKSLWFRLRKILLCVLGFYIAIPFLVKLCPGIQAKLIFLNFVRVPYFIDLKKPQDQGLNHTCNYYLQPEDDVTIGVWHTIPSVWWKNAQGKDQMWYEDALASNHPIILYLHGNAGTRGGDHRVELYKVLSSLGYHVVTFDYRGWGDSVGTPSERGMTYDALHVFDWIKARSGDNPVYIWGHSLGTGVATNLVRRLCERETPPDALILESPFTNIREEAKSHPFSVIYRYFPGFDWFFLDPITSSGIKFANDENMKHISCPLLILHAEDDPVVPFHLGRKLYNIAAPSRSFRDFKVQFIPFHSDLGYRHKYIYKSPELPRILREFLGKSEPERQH
Experiment: LC/MS/MS of arachidonic acid formed from […] exogenous 2-AG in nuclear matrix fraction, blocked by MAFP
Format: cell-based

In the case of `CCCCC/C=C\C/C=C\C/C=C\C/C=C\CCCC(=O)OC(CO)CO` [2-AG], the “LC/MS/MS of arachidonic acid formed from 10 μM exogenous 2-AG in nuclear matrix” value was “ABHD12 is the main responsible for the hydrolysis of 2-AG in the nuclear matrix”.
